In the supplement of paper PMC10307832:

Tests used:
Assay in all cases: relative viability (nuclei count vs DMSO), 5 days (fraction); higher = more cells survive
[1] = compound: CCC1=CN=CN=C1N2CCN(CC2)CC3=NC4=C(N3)C=C(C=C4)C(F)(F)F + N=C(N)NC(=N)NCCc1ccccc1 [Phenformin] (partner 250 µM)
Method in brief: (§1)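 Lung cancer cell lines in 1536-well plates got either a single drug or a fixed anchor-drug dose together with five library-drug doses (not always all listed) in √10 steps, by pin tool, on the day after seeding. Nuclei were counted after 5 days, and relative viability is the treated-to-vehicle ratio of nuclei counts. Values are medians of duplicate plates.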

[2] = compound: CCC1=CN=CN=C1N2CCN(CC2)CC3=NC4=C(N3)C=C(C=C4)C(F)(F)F + Nc1ncn([C@H]2C[C@H](O)[C@@H](CO)O2)c(=O)n1 [Decitabine] (partner 2 µM)
Method in brief: as §1

[3] = compound: CCn1c(-c2nonc2N)nc2cnc(Oc3cccc(NC(=O)c4ccc(OCCN5CCOCC5)cc4)c3)cc21 + Cc1nc(NC(=O)N2CCC[C@H]2C(N)=O)sc1-c1ccnc(C(C)(C)C(F)(F)F)c1 [Alpelisib] (partner 2 µM)
Method in brief: as §1

Mirin + Lapatinib = compound: N=C1NC(=O)/C(=C/c2ccc(O)cc2)S1 [Mirin] + CS(=O)(=O)CCNCc1ccc(-c2ccc3ncnc(Nc4ccc(OCc5cccc(F)c5)c(Cl)c4)c3c2)o1 [Lapatinib] (partner 2 µM)
Method in brief: as §1

Cell Line | relative viability ([1]; first compound 0.04 µM) | relative viability ([1]; first compound 0.1265 µM) | relative viability ([1]; first compound 0.4 µM) | relative viability ([1]; first compound 1.265 µM) | relative viability ([1]; first compound 4 µM) | relative viability ([2]; first compound 0.04 µM) | relative viability ([2]; first compound 0.1265 µM) | relative viability ([2]; first compound 0.4 µM) | relative viability ([2]; first compound 1.265 µM) | relative viability ([2]; first compound 4 µM) | relative viability ([3]; first compound 0.04 µM) | relative viability ([3]; first compound 0.1265 µM) | relative viability ([3]; first compound 0.4 µM) | relative viability ([3]; first compound 1.265 µM) | relative viability ([3]; first compound 4 µM) | relative viability (Mirin + Lapatinib; first compound 0.25 µM) | relative viability (Mirin + Lapatinib; first compound 0.7906 µM) | relative viability (Mirin + Lapatinib; first compound 2.5 µM) | relative viability (Mirin + Lapatinib; first compound 7.906 µM) | relative viability (Mirin + Lapatinib; first compound 25 µM)
NCI-H838 | 0.575 | 0.507 | 0.536 | 0.434 | 0.596 | 0.418 | 0.408 | 0.475 | 0.433 | 0.444 | 0.654 | 0.467 | 0.484 | 0.406 | 0.332 | 1.15 | 0.454 | 1.07 | 0.898 | 0.658
HARA | 0.464 | 0.368 | 0.305 |  | 0.472 | 0.424 | 0.505 | 0.533 | 0.508 | 0.512 | 0.831 | 0.797 | 0.756 | 0.395 | 0.485 | 0.836 | 0.747 | 0.742 | 0.652 | 0.665
NCI-H23 | 0.703 | 0.742 | 0.768 | 0.73 | 0.792 | 0.288 | 0.31 | 0.282 | 0.252 | 0.358 | 0.874 | 0.831 |  | 0.604 | 0.495 | 1.17 |  | 1.13 | 0.936 | 0.742
LCLC-97TM1 | 0.477 | 0.406 | 0.412 | 0.478 | 0.498 | 0.24 | 0.205 | 0.225 | 0.227 | 0.215 | 0.276 | 0.236 |  | 0.3 | 0.305 | 1.04 | 0.594 | 0.857 | 0.867 | 1
LC-2-ad | 0.52 | 0.547 | 0.604 | 0.495 | 0.679 | 0.929 | 0.816 | 0.792 | 0.774 | 0.768 | 0.945 | 0.542 | 0.797 | 0.658 | 0.515 | 0.967 | 1.03 | 0.947 | 0.783 | 0.98
SW 1573 | 0.405 | 0.415 | 0.3 | 0.406 | 0.357 | 0.471 | 0.425 | 0.57 | 0.378 | 0.478 | 0.968 | 0.823 | 0.48 | 0.397 | 0.276 | 1.13 | 1.16 | 1.09 | 0.952 | 0.908
EKVX | 0.25 | 0.213 | 0.235 |  | 0.22 | 0.264 | 0.289 | 0.328 | 0.344 | 0.335 | 1.16 | 0.83 | 0.883 | 0.764 | 0.837 | 0.213 | 0.192 | 0.23 | 0.215 | 0.256
NCI-H2087 | 0.499 | 0.465 | 0.448 | 0.467 | 0.496 | 0.278 | 0.234 | 0.331 | 0.271 | 0.209 |  | 0.767 | 0.886 | 0.838 | 0.524 | 1.09 | 1.07 | 0.91 | 1.12 | 1.14
HCC-827 | 0.453 | 0.357 | 0.406 |  | 0.404 | 0.504 | 0.286 | 0.34 | 0.307 | 0.357 | 1.11 | 0.973 | 0.996 | 1.07 | 0.947 | 0.167 | 0.182 | 0.17 | 0.2 | 0.227
NCI-H661 | 0.28 | 0.259 | 0.301 | 0.263 | 0.313 | 0.557 | 0.522 | 0.524 | 0.472 | 0.55 | 0.823 | 0.724 | 0.435 | 0.287 | 0.451 | 0.407 | 0.567 | 0.539 | 0.442 | 0.392
CAL-12T | 0.551 | 0.616 | 0.626 | 0.548 | 0.643 |  |  |  |  |  | 1.75 | 1.49 | 1.51 | 1.23 | 0.786 | 0.702 |  | 0.92 |  | 0.238
NCI-H2342 | 0.579 | 0.477 | 0.611 | 0.429 | 0.547 | 0.689 | 0.728 | 0.707 | 0.575 | 0.513 |  |  |  |  |  |  |  |  |  | 
SW 900 | 0.571 | 0.555 | 0.648 | 0.551 | 0.832 | 0.385 | 0.424 | 0.457 |  | 0.397 |  |  |  |  |  |  |  |  |  | 
IA-LM |  |  |  |  |  |  |  |  |  |  | 1.17 | 0.929 | 0.871 | 0.825 | 0.687 | 0.676 | 0.851 | 1.09 | 0.431 | 0.608
EPLC-272H | 0.308 | 0.333 | 0.299 | 0.325 | 0.337 | 0.347 | 0.319 | 0.388 | 0.288 | 0.406 | 1.11 | 0.963 | 0.892 | 0.933 | 0.973 | 0.9 |  | 0.886 | 0.83 | 0.664
A-427 | 0.3 | 0.292 | 0.225 | 0.234 | 0.224 | 0.55 | 0.548 | 0.556 | 0.535 | 0.599 | 1.22 | 1.13 | 1.04 | 1.1 | 0.998 | 1.12 |  | 1.17 | 1.05 | 1.08
NCI-H650 | 0.442 | 0.418 | 0.466 | 0.454 | 0.464 | 0.313 | 0.306 | 0.328 | 0.271 | 0.287 | 1.31 | 0.893 | 0.745 | 0.434 | 0.492 | 0.943 |  | 0.902 |  | 1.02
NCI-H1975 | 0.434 | 0.392 | 0.374 | 0.382 | 0.436 | 0.358 | 0.396 | 0.41 | 0.339 | 0.393 | 0.548 | 0.439 | 0.401 | 0.221 | 0.202 | 1.12 | 0.785 | 0.883 | 1.02 | 0.757
